Results as given in patent publication US8193238B2, “Inhibition of microtubule protrusion in cancer cells” (University of Maryland, Baltimore, priority 2006, dated 2012).
“Also recorded” adds a separate entry of the source.

How the values were obtained:
[1] = test system: EpH4 cells; assay: Protrusions in suspended cells treated with cytoskeletal inhibitors (EpH4); assay type: cell-based, mouse
Protocol: (§1) In FIG. 2A, after 15 minutes of suspension, protrusions in EpH4 and MCF10A cells are quite small (Control, white arrows). […] In FIG. 2B, populations of live, suspended cells were scored blindly for two or more protrusions longer than the cell radius. Each bar represents the mean+S.D. for three experiments in which at least 100 single cells were counted.
EpH4 cells were suspended in either DMEM (Control) or media containing 5 μM Latrunculin-A (LA), 1 μM Colchicine or the combination of both drugs for 30 minutes. Cells were then spun onto glass coverslips and fluorescently stained for α-tubulin (green) and polymerized actin (red). Protrusions that are difficult to see by phase contrast are easily discernible with immunostaining for α-tubulin (white arrows). Protrusions contain little polymerized actin, except at points of concentration, which are often at the end (arrowhead).
EpH4 and B19 cells were suspended over 2% agarose coated plates to prevent attachment in either serum-free DMEM or media containing. Latrunculin-A (5 μM) to enhance protrusions. For co-staining of α-tubulin and actin, suspended cells were then centrifuged onto poly-L-lysine coated coverslips (280 g×5 min), fixed in 3.7% formaldehyde in PBS for 10 min, and permeablized with 0.1% Triton X-100 in PBS. Adhered cells were then stained for 1 hr at room temperature using FITC-conjugated anti-α-tubulin (1:200; Sigma), Alexa-594 phalloidin (1:100; Molecular Probes), and Hoescht 33342 (1:5000; Sigma).
(§2) In order to initially characterize the cytoskeletal mechanism underlying these protrusions, suspended cells were treated with inhibitors of actin and tubulin polymerization (FIG. 2). After 15 minutes of suspension, the protrusions in untreated EpH4 or MCF10A cells remain fairly short (FIG. 2, white arrows). These early protrusions can often be difficult to detect with phase-contrast microscopy, due to interfering light refraction from the plasma membrane. […] Protrusions were more easily visible with immunofluorescence than phase contrast microscopy (FIG. 3, white arrows). Although actin filament staining was generally low along the length of the protrusion, dense points of actin were often found at the end of protrusions (FIG. 3, arrowheads).

[2] = test system: detached mammary epithelial cells; assay: Protrusions of detached mammary epithelial cells, general statements; assay type: cell-based, human and mouse
Protocol: Time-lapse video microscopy of detached mammary epithelial cells detected the extension of long, dynamic protrusions of the plasma membrane, and the present inventors have characterized the cytoskeletal mechanism underlying this novel observation. […] This response may be relatively short-lived, in specific embodiments, since mammary epithelial cells die by apoptosis within about 24 hours in suspension. However, cell lines that resist apoptosis through expression of either Bcl-2 or Bcl-xL will persistently form protrusions. Previous studies by the inventors indicate that such apoptotically-resistant cell lines will not form tumors in mice and lie dormant in distant tissues, in specific embodiments of the invention. […] These microtubule processes can extend more than 3 times the cell diameter, and undergo a rapid probing motion more than once per second. Formation of these microtubule protrusions is necessary for efficient cell-cell and cell-substratum attachment. In particular embodiments of the invention, this inherent microtubule response in detached mammary epithelial cells provides at least some of the invasive characteristics of breast cancer, independent of any tumor-specific genetic alteration, for example.
Breast tumor cells enter the bloodstream long before the development of clinically evident metastasis. However, the early presence of such bloodborne cells predicts poor patient outcome. Nearly 90% of human breast tumors arise as carcinomas from mammary epithelial cells, so it is important to characterize how these cells respond to the detached conditions that they would experience in the bloodstream. In the present invention, mammary epithelial cell lines produce long and dynamic protrusions of the plasma membrane when detached. Although human and mouse mammary epithelial cell lines die by apoptosis within 16 hours of detachment, this protrusive response persists for days in cells overexpressing either Bcl-2 or Bcl-xL, for example. […] Since bloodborne metastasis depends on both cell-cell and cell-matrix attachment, microtubule-based protrusions in detached mammary epithelial cells provide a novel target that could influence the metastatic spread of breast tumors.
Detachment-induced increases in Glu-tubulin could promote plasma membrane protrusions of microtubules by preventing efficient capture at the actin cortex. […] Therefore, our current model is that detachment increases stabilized microtubules enriched in Glu-tubulin, while decreased actin polymerization simply promotes extension of these microtubule protrusions.

[3] = test system: MCF10A cells; assay: Protrusions in suspended cells treated with cytoskeletal inhibitors (MCF10A); assay type: cell-based, human; set-up: protrusions counted with phase-contrast microscopy: dose or concentration left out as unconfirmed
Protocol: as §1, §2
The nontumorigenic human mammary epithelial cell line (MCF10A) or the indicated human breast tumor cell lines were grown in suspension for 30-60 minutes, and protrusions were counted in random fields with phase-contrast microscopy. Values represent the mean±S.D. of three experiments in which at least 100 cells were counted. […] This effect was most apparent in the highly metastatic but exemplary Bt-474 and MDA-MB-231 cells (pictured, black arrows). The exemplary MCF10A cells show far fewer and shorter protrusions at the same time point (pictured, white arrows). Such protrusions are not observed in attached cells.

## C/C1=C/C(=O)O[C@@H]2C[C@@H](CC[C@H](C)/C=C\C=C\CC1)O[C@@](O)([C@@H]1CSC(=O)N1)C2 [Latrunculin-A]
[1]; EpH4, 15 minutes of suspension, Latrunculin-A 5 μM, Colchicine 1 μM, listed as latrunculin-A
  protrusions: significantly enhanced both the number and length of protrusions
[1]; EpH4 suspended 30 minutes, LA 5 μM, listed as LA
  microtubule protrusions by immunofluorescence (α-tubulin): increase the number and length of microtubule protrusions; also recorded: strongly enhances the formation of microtubule protrusions
[2]
  protrusions: enhanced; also recorded: promotes the extension of microtubule protrusions
[3]; MCF10A in suspension 30-60 minutes, LA
  protrusions counted with phase-contrast microscopy: increases protrusions
[3]; MCF10A, 15 minutes of suspension, Latrunculin-A 5 μM, Colchicine 1 μM, listed as latrunculin-A
  protrusions: significantly enhanced both the number and length of protrusions
